27 molecules from PubChem BioAssay (NCI) can be followed below.

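Cells were grown in 96-well plates and exposed to each compound for 48 hours at five concentrations; endpoints were interpolated linearly between bracketing concentrations, or set to the highest concentration if not reached. The concentration for full growth arrest is given as TGI.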 Where a SMILES comes first, the peptide text is derived from it. The star is where a group is joined. Boc = CC(C)(C)OC(=O)*

The first assay concerns PC-3 prostate. Nature of the assay: NCI tumour cell line growth inhibition, 48 h.
Consider `Cc1c(F)c(N)c2c(=O)cc(-c3ccc(NC(=O)CN(C)C)c(F)c3)oc2c1F`, for which the TGI is greater than 100 µM.

Regarding `CCN1CC2=C(NC(=S)NC2c2ccc(Cl)cc2)/C(=C/c2ccc(Cl)cc2)C1` (centres undefined), the TGI is greater than 100 µM.

`CN1C(=O)N(c2ccccc2)C2(CCN(CC3COc4ccccc4O3)CC2)C1=O` (centres undefined): the TGI was greater than 100 µM.

For the molecule `O=C(O)c1c2c(cc3c1CC1(Cc4ccccc4C1)C3)CCC2`, the TGI was greater than 100 µM.

`Cc1nc(-c2ccc([N+](=O)[O-])cc2)cn2c1nc1ccccc12` gave a TGI greater than 100 µM.

For `OCC1CCCCCCCCCCC12SCCCS2` (centres undefined), the TGI is greater than 100 µM.

In turn, `COc1cc(-c2cc(=O)c3cc4c(cc3[nH]2)OCO4)cc(OC)c1O` returned a TGI greater than 10 µM.

Molecule `CC(C)=CCOC(=O)C(C)=[N+]=[N-]` returned a TGI greater than 100 µM.

Consider `COC(=O)CNC(=O)C(Cc1ccccc1)NC(=O)C(CCSC)NC(=O)C(Cc1ccc(O)cc1)NC(=O)OC(C)(C)C` (centres undefined) (Boc-YMFG-OMe; configuration not given here), for which the TGI was greater than 100 µM.

Molecule `O=C(Nc1ccc(Br)cc1)c1c(-c2ccccc2)c2ccc(O)cc2oc1=O` showed a TGI greater than 10 µM.

As to `COc1ccc(N2C(=O)C3c4[nH]c5ccc(OCc6ccccc6)cc5c4C4CCC(C(C)(C)C)CC4C3C2=O)cc1` (centres undefined), the TGI is greater than 100 µM.

A further assay relates to HL-60(TB) leukemia. Briefly: NCI tumour cell line growth inhibition, 48 h.
For `NC(C(F)(F)F)(C(F)(F)F)P(=O)(Cc1ccccc1)Cc1ccccc1`, the TGI is greater than 100 µM.

The molecule `CN1C(=O)C2C(=O)N(Cc3ccccc3)CC(=O)N2c2cccnc21` (centres undefined) registered a TGI greater than 100 µM.

Turning to `C=C1CC(COc2cc(=O)oc3ccccc23)(c2ccccc2)OC1=O` (centres undefined), the TGI amounted to 6.34 µM.

Molecule `O=C(O)CSc1nnc(COc2ccc(Cl)cc2)n1-c1ccccc1` came in with a TGI greater than 100 µM.

`C[N+]1=C2[B-](C(C)(C)C)=[N+](C(C)(C)C)[B-]2(C(C)(C)C)[N+](C)=C2[B-](C(C)(C)C)=[N+](C(C)(C)C)[B-]21C(C)(C)C` (centres undefined): the TGI was greater than 100 µM.

With `Cc1cc(N(CCC#N)CCC#N)ccc1/C=N/NC(=O)c1cc(Cl)ccc1O`, the TGI is greater than 100 µM.

`Brc1ccc(CCNCCN2CCCCC2)cc1`: the TGI is greater than 100 µM.

In turn, `Cc1ccc(C(=O)Nc2ccc(CP(=O)(O)O)cc2CP(=O)(O)O)cc1NC(=O)c1cccc(N)c1` registered a TGI greater than 100 µM.

In the case of `OC1C2[C@@H](O)CCCN2C[C@@H](O)[C@H]1O` (some centres undefined), the TGI was greater than 100 µM.

For `COCOC1/C=C/CCCC#C[C@H](C)C(=O)CC1` (some centres undefined), the TGI is 5.12 µM.

Take `CC[C@]1(Cc2ccc(OC)c(OC)c2)CN(S(=O)(=O)c2ccc(C)cc2)C[C@@H]1OC(C)=O`: the TGI is greater than 100 µM.

For `COc1ccccc1N/C(=C\C(=O)C(=O)NC12CC3CC(CC(C3)C1)C2)c1ccccc1`, the TGI was greater than 10 µM.

In turn, `CC(C)(C)c1ccc2c(c1)CNCCNCc1cc(C(C)(C)C)ccc1OCC1(CO2)COc2ccc(C(C)(C)C)cc2CNCCNCc2cc(C(C)(C)C)ccc2OC1` displayed a TGI of 0.475 µM.

With `NCC1CCN(c2nc3ccccc3c3c2CCCC3)CC1`, the TGI worked out at 8.13 µM.

`CCN(CC)CCc1c2c(nc3ccccc13)C(=O)c1cccnc1C2=O` registered a TGI of 1.41 µM.

Regarding `Nc1cc(CO)cc(Nc2nc3ccc(Cl)cc3c3[nH]c4ccccc4c23)c1`, the TGI was determined as 52.7 µM.

Take `Cc1c(F)c(N)c2c(=O)cc(-c3ccc(NC(=O)CN(C)C)c(F)c3)oc2c1F`: the TGI was 46.4 µM.

In the case of `CCN1CC2=C(NC(=S)NC2c2ccc(Cl)cc2)/C(=C/c2ccc(Cl)cc2)C1` (centres undefined), the TGI was greater than 100 µM.

`CN1C(=O)N(c2ccccc2)C2(CCN(CC3COc4ccccc4O3)CC2)C1=O` (centres undefined) yielded a TGI greater than 100 µM.

Consider `O=C(O)c1c2c(cc3c1CC1(Cc4ccccc4C1)C3)CCC2`, for which the TGI was greater than 100 µM.

Molecule `Cc1nc(-c2ccc([N+](=O)[O-])cc2)cn2c1nc1ccccc12` came in with a TGI greater than 100 µM.

For `OCC1CCCCCCCCCCC12SCCCS2` (centres undefined), the TGI is greater than 100 µM.

For the molecule `COc1cc(-c2cc(=O)c3cc4c(cc3[nH]2)OCO4)cc(OC)c1O`, the TGI was greater than 10 µM.

In turn, `CC(C)=CCOC(=O)C(C)=[N+]=[N-]` had a TGI greater than 100 µM.

Regarding `COC(=O)CNC(=O)C(Cc1ccccc1)NC(=O)C(CCSC)NC(=O)C(Cc1ccc(O)cc1)NC(=O)OC(C)(C)C` (centres undefined) (Boc-YMFG-OMe; configuration not given here), the TGI was greater than 100 µM.

`O=C(Nc1ccc(Br)cc1)c1c(-c2ccccc2)c2ccc(O)cc2oc1=O`: the TGI was greater than 10 µM.

`COc1ccc(N2C(=O)C3c4[nH]c5ccc(OCc6ccccc6)cc5c4C4CCC(C(C)(C)C)CC4C3C2=O)cc1` (centres undefined) displayed a TGI greater than 100 µM.

The next assay has as its system UACC-257 melanoma. Briefly: NCI tumour cell line growth inhibition, 48 h.
The molecule `NC(C(F)(F)F)(C(F)(F)F)P(=O)(Cc1ccccc1)Cc1ccccc1` had a TGI greater than 100 µM.

`CN1C(=O)C2C(=O)N(Cc3ccccc3)CC(=O)N2c2cccnc21` (centres undefined) returned a TGI greater than 100 µM.

Regarding `C=C1CC(COc2cc(=O)oc3ccccc23)(c2ccccc2)OC1=O` (centres undefined), the TGI amounted to 6.65 µM.

`O=C(O)CSc1nnc(COc2ccc(Cl)cc2)n1-c1ccccc1` gave a TGI greater than 100 µM.

With `C[N+]1=C2[B-](C(C)(C)C)=[N+](C(C)(C)C)[B-]2(C(C)(C)C)[N+](C)=C2[B-](C(C)(C)C)=[N+](C(C)(C)C)[B-]21C(C)(C)C` (centres undefined), the TGI was greater than 100 µM.

For the molecule `Cc1cc(N(CCC#N)CCC#N)ccc1/C=N/NC(=O)c1cc(Cl)ccc1O`, the TGI is greater than 100 µM.

Molecule `Brc1ccc(CCNCCN2CCCCC2)cc1` had a TGI of 28.3 µM.

The molecule `Cc1ccc(C(=O)Nc2ccc(CP(=O)(O)O)cc2CP(=O)(O)O)cc1NC(=O)c1cccc(N)c1` displayed a TGI greater than 100 µM.

`OC1C2[C@@H](O)CCCN2C[C@@H](O)[C@H]1O` (some centres undefined) gave a TGI greater than 100 µM.

Take `COCOC1/C=C/CCCC#C[C@H](C)C(=O)CC1` (some centres undefined): the TGI is 17.8 µM.

In the case of `CC[C@]1(Cc2ccc(OC)c(OC)c2)CN(S(=O)(=O)c2ccc(C)cc2)C[C@@H]1OC(C)=O`, the TGI was greater than 100 µM.

In turn, `COc1ccccc1N/C(=C\C(=O)C(=O)NC12CC3CC(CC(C3)C1)C2)c1ccccc1` registered a TGI greater than 10 µM.

In turn, `CC(C)(C)c1ccc2c(c1)CNCCNCc1cc(C(C)(C)C)ccc1OCC1(CO2)COc2ccc(C(C)(C)C)cc2CNCCNCc2cc(C(C)(C)C)ccc2OC1` came in with a TGI of 3 µM.

`NCC1CCN(c2nc3ccccc3c3c2CCCC3)CC1`: the TGI was found to be 6.84 µM.

The molecule `CCN(CC)CCc1c2c(nc3ccccc13)C(=O)c1cccnc1C2=O` yielded a TGI of 2.91 µM.

As to `Nc1cc(CO)cc(Nc2nc3ccc(Cl)cc3c3[nH]c4ccccc4c23)c1`, the TGI was determined as 23.2 µM.

`Cc1c(F)c(N)c2c(=O)cc(-c3ccc(NC(=O)CN(C)C)c(F)c3)oc2c1F` yielded a TGI greater than 100 µM.

Molecule `CCN1CC2=C(NC(=S)NC2c2ccc(Cl)cc2)/C(=C/c2ccc(Cl)cc2)C1` (centres undefined) showed a TGI greater than 100 µM.

`CN1C(=O)N(c2ccccc2)C2(CCN(CC3COc4ccccc4O3)CC2)C1=O` (centres undefined) came in with a TGI greater than 100 µM.

As for `O=C(O)c1c2c(cc3c1CC1(Cc4ccccc4C1)C3)CCC2`, the TGI was greater than 100 µM.

`Cc1nc(-c2ccc([N+](=O)[O-])cc2)cn2c1nc1ccccc12`: the TGI is greater than 100 µM.

The molecule `COc1cc(-c2cc(=O)c3cc4c(cc3[nH]2)OCO4)cc(OC)c1O` returned a TGI greater than 10 µM.

For the molecule `CC(C)=CCOC(=O)C(C)=[N+]=[N-]`, the TGI is greater than 100 µM.

With `COC(=O)CNC(=O)C(Cc1ccccc1)NC(=O)C(CCSC)NC(=O)C(Cc1ccc(O)cc1)NC(=O)OC(C)(C)C` (centres undefined) (Boc-YMFG-OMe; configuration not given here), the TGI is 38.2 µM.

On to `O=C(Nc1ccc(Br)cc1)c1c(-c2ccccc2)c2ccc(O)cc2oc1=O`, for which the TGI is greater than 10 µM.

Turning to `COc1ccc(N2C(=O)C3c4[nH]c5ccc(OCc6ccccc6)cc5c4C4CCC(C(C)(C)C)CC4C3C2=O)cc1` (centres undefined), the TGI is greater than 100 µM.
